Assay results from US20060194835A1, “Compositions and methods for treating or preventing flaviviridae infections” (priority 2005, published 2006).

Columns and labels:
BVDV [1] = experiment: Protection of MDBK cells from BVDV-induced cytopathicity (CPE reduction, MTS/PMS); assay type: cell-based, bovine viral diarrhea virus; conditions: for EC50: 50% CPE reduction; for protection of MDBK cells from BVDV-induced cytopathicity (in words): at the concentrations tested
in vitro = conditions: bovine
[2] = Drug cytotoxicity in uninfected MDBK cells (MTS/PMS); conditions: bovine
BVDV [3] = experiment: Double combination checkerboard CPE assay, MacSynergy II and isobolograms; assay type: cell-based, bovine viral diarrhea virus; conditions: at 10 IU/mL interferon-α2b
Experimental: A double combination assay was performed using MDBK cells infected with BVDV in an inhibition of cytopathic effect (CPE) assay as described in Example 2. The double drug combinations were measured by creating a “checkerboard” of drug concentrations used on cell monolayers in microtiter plates, with one drug being titrated horizontally and the other drug titrated vertically, and each double combination being tested at least twice.
The EC50 values of a first test compound derived while in combination with a second test compound were plotted against the corresponding concentration of the second test compound to create an isobole (dose pair). All of the isoboles were plotted in an isobologram to determine the presence of synergy, antagonism or additivity for the combined test compounds. […] The line connecting the monotherapy EC50 values represents the theoretical additivity effect values for the two compounds.
In addition to generating isobolograms, the checkerboard data was imported into MacSynergy™ II software to graph the observed synergy (or additive or antagonism) volumes for the double combinations tested. Briefly, the calculated additive interactions were subtracted from the experimentally determined values to reveal the corresponding drug concentrations at which a synergistic (indicated by positive % values) or antagonistic (indicated by negative % values) effect is observed. The greater the positive percent volume observed, the greater the synergy between the two compounds. […] In contrast, any value about or less than −25 μM^2% or μM(IU/mL) % is indicative of a significant antagonistic effect. The data presented in Table 5 represent volumes of synergy or antagonism with 95% confidence. The confidence level was calculated using a Bonferroni adjustment as a conservative estimate of significance to statistically evaluate the data.

BVDV [4] = experiment: Triple combination checkerboard CPE assay (celgosivir or castanospermine + interferon-α2b + ribavirin), MacSynergy II; assay type: cell-based, bovine viral diarrhea virus; conditions: for EC50: read-out: Average Castanospermine EC50
Experimental: Each double or triple combination was performed twice. The combination efficacy data were analyzed using the MacSynergy™ II software program as described herein.
Each double or triple combination was performed twice. The combination efficacy data were analyzed using the MacSynergy™ II software program as described herein. The EC50 for each of celgosivir and castanospermine was calculated from the triple combination studies described in Example 6.
Each double or triple combination was performed twice. The combination efficacy data were analyzed using the MacSynergy™ software program as described herein. The EC50 for interferon-α2b was calculated from the triple combination studies described in Example 6.

MDBK cells [5] = experiment: Drug cytotoxicity in uninfected MDBK cells (MTS/PMS); conditions: uninfected MDBK cells
BVDV strain NADL = experiment: Inhibition of viral release from BVDV-infected MDBK cells (plaque titer); conditions: MOI = 1; for EC50: inhibits 50% of viral release; for EC50 / EC90: 24 hours; for EC90: inhibits 90% of viral release
MDBK cells [6] = experiment: Cytotoxicity of test compound in MDBK cells in the absence of viral infection (Example 1); conditions: absence of viral infection
[7] = Bovine viral diarrhea virus isolates and strains, MDBK, MOI 0.05

## O=C(N[C@@H](Cc1c[nH]c2ccccc12)C(=O)O)c1ccc2ccn(Cc3ccccc3)c2c1 [2-BAIP, (L)-2-[(1-Benzyl-1H-indole-6-carbonyl)-amino]-3-(1H-indol-3-yl)-propionic acid, reference compound]
BVDV [1]; [7]
  EC50: > 50 µM
BVDV [1]
  protection of MDBK cells from BVDV-induced cytopathicity (in words): do not protect
In vitro
  CC50: > 50 µM

## NC12CC3CC(CC(C3)C1)C2 [Amantadine, amantadine, reference compound]
BVDV [1]; MOI 0.05
  EC50: 357 µM
BVDV [1]; [7]
  EC50: 476 µM
[2]
  CC50: > 1 mM

## O[C@H]1[C@H](O)[C@@H](O)CN2CC[C@H](O)[C@H]12 [Castanospermine, [1S-(1α,6β,7α,8β,8aβ)]-octahydro-1,6,7,8-indolizinetetrol]
BVDV [1]; MOI 0.01, read-out: EC50
  EC50: 62 ± 15 µM
BVDV [3]
  fold reduction of EC50 of castanospermine: more than 7 fold
BVDV [4]; Ribavirin 0 μM, Interferon-α2b 0 IU/mL, listed as castanospermine
  EC50: ~52 µM
BVDV [4]; Ribavirin 0 μM, Interferon-α2b 0 IU/mL
  EC50: 52.2 ± 9.5 µM
BVDV [4]; Ribavirin 0 μM, Interferon-α2b 0.7 IU/mL
  EC50: 39 ± 13.4 µM
BVDV [4]; Ribavirin 0 μM, Interferon-α2b 2.2 IU/mL
  EC50: 18.9 ± 2.1 µM
BVDV [4]; Ribavirin 0 μM, Interferon-α2b 6.7 IU/mL
  EC50: 11.9 ± 2.5 µM
BVDV [4]; Ribavirin 0 μM, Interferon-α2b 20 IU/mL
  EC50: < 1.3 µM
BVDV [4]; Ribavirin 0.12 μM, Interferon-α2b 0.7 IU/mL
  EC50: 34.3 ± 3.4 µM
BVDV [4]; Ribavirin 0.12 μM, Interferon-α2b 2.2 IU/mL
  EC50: 23.4 ± 2.4 µM
BVDV [4]; Ribavirin 0.12 μM, Interferon-α2b 6.7 IU/mL
  EC50: 9.7 ± 4.8 µM
BVDV [4]; Ribavirin 0.12 μM, Interferon-α2b 20 IU/mL
  EC50: < 1.4 µM
BVDV [4]; Ribavirin 0.37 μM, Interferon-α2b 0.7 IU/mL
  EC50: 27.7 ± 6.3 µM
BVDV [4]; Ribavirin 0.37 μM, Interferon-α2b 2.2 IU/mL
  EC50: 19.7 ± 5.2 µM
BVDV [4]; Ribavirin 0.37 μM, Interferon-α2b 6.7 IU/mL
  EC50: 6.5 ± 7.5 µM
BVDV [4]; Ribavirin 0.37 μM, Interferon-α2b 20 IU/mL
  EC50: < 1.5 µM
BVDV [4]; Ribavirin 1.1 μM, Interferon-α2b 0.7 IU/mL
  EC50: 14 ± 4.5 µM
BVDV [4]; Ribavirin 1.1 μM, Interferon-α2b 2.2 IU/mL
  EC50: 6.9 ± 1 µM
BVDV [4]; Ribavirin 1.1 μM, Interferon-α2b 6.7 IU/mL
  EC50: < 1.2 µM
BVDV [4]; Ribavirin 1.1 μM, Interferon-α2b 20 IU/mL
  EC50: < 1.2 µM
BVDV [4]; Ribavirin 3.3 μM, Interferon-α2b 0.7 IU/mL
  EC50: < 1.2 µM
BVDV [4]; Ribavirin 3.3 μM, Interferon-α2b 2.2 IU/mL
  EC50: < 1.2 µM
BVDV [4]; Ribavirin 3.3 μM, Interferon-α2b 6.7 IU/mL
  EC50: < 1.2 µM
BVDV [4]; Ribavirin 3.3 μM, Interferon-α2b 20 IU/mL
  EC50: < 1.2 µM
BVDV [4]; upon the addition of increasing concentrations of interferon-α2b
  dose-dependent reduction in EC50: up to 52 fold
MDBK cells [5]
  CC50: > 1000 µM
BVDV strain NADL
  TI (Therapeutic Index, CC50/EC50): >100
  EC50: 19.4 ± 8.3 µM
  EC90: 89 ± 21 µM
MDBK cells [6]
  CC50: > 2 mM

## CCCCN1C[C@H](O)[C@@H](O)[C@H](O)[C@H]1CO [NB-DNJ, N-butyldeoxynojirimycin, reference compound]
BVDV [1]; MOI 0.05, read-out: EC50
  EC50: 459 µM
MDBK cells [5]
  CC50: > 500 µM

## C[C@@]1(O)[C@H](O)[C@@H](CO)O[C@H]1n1ccc(N)nc1=O [NM-107, 2′-C-methyl cytidine, reference compound]
BVDV [1]; Bovine viral diarrhea virus isolates and strains, MDBK, MOI 0.01
  EC50: 2.1 ± 0.5 µM
In vitro
  CC50: 228 µM

## Interferon-α2b
BVDV [1]; MOI 0.01
  EC50: 19.4 ± 6 IU/mL
BVDV [4]; Castanospermine added 0 μM
  Average Interferon-α2b EC50: 16 IU/mL
BVDV [4]; Castanospermine added 1.2 μM
  Average Interferon-α2b EC50: 18 IU/mL
BVDV [4]; Castanospermine added 3.7 μM
  Average Interferon-α2b EC50: 13 IU/mL
BVDV [4]; Castanospermine added 11 μM
  Average Interferon-α2b EC50: 7 IU/mL
BVDV [4]; Castanospermine added 33 μM
  Average Interferon-α2b EC50: 1 IU/mL
BVDV [4]; Celgosivir added 0 μM
  Average Interferon-α2b EC50: 19 IU/mL
BVDV [4]; Celgosivir added 0.25 μM
  Average Interferon-α2b EC50: 21 IU/mL
BVDV [4]; Celgosivir added 0.74 μM
  Average Interferon-α2b EC50: 14 IU/mL
BVDV [4]; Celgosivir added 2.2 μM
  Average Interferon-α2b EC50: 5 IU/mL
BVDV [4]; Celgosivir added 6.7 μM
  Average Interferon-α2b EC50: <1 IU/mL
BVDV [4]; at increased concentration of castanospermine or celgosivir
  EC50 of interferon-α2b: less than 1 IU/mL
BVDV [4]; without added castanospermine or celgosivir
  EC50 of interferon-α2b: about 20 IU/mL
MDBK cells [5]
  CC50: >300 IU/mL
BVDV strain NADL
  TI (Therapeutic Index, CC50/EC50): >200
  EC50: 8.0 ± 6.8 IU/mL
  EC90: 114 ± 92 IU/mL
MDBK cells [6]
  CC50: >1000 IU/mL

## Interferon-ω: type I interferon, interferon-ω (Cedarlane Laboratories)
BVDV [1]; MOI 0.01
  EC50: 37 ± 1.4 IU/mL
MDBK cells [5]
  CC50: >1000 IU/mL

## Peginterferon-α2a
BVDV [1]; MOI 0.01
  EC50: 16.6 ± 11 IU/mL
MDBK cells [5]
  CC50: >1000 IU/mL

B1: Interferon-γ: type II interferon (protein, UniProt P01579 24-161, looked up)
Interferon gamma: QDPYVKEAENLKKYFNAGHSDVADNGTLFLGILKNWKEESDRKIMQSQIVSFYFKLFKNFKDDQSIQKSVETIKEDMNVKFFNSNKKKRDDFEKLTNYSVTDLNVQRKAIHELIQVMAELSPAAKTGKRKRSQMLFRG
BVDV [1]; MOI 0.01
  EC50: >1000 IU/mL
BVDV [1]
  protection of MDBK cells from BVDV-induced cytopathicity (in words): do not protect
MDBK cells [5]
  CC50: >1000 IU/mL
